Reference: patent US9156877B2, “17-hydroxy-17-pentafluorethyl-estra-4,9(10)-dien-11-benzylidene derivatives, methods for the production thereof and use thereof for treating diseases” (Bayer Intellectual Property GmbH, priority 2009, dated 2015)
pIC50: −log10 of the molar value. ≈ marks a conversion by molar mass, not a printed value.

How the values were obtained:
[1] = Metabolic stability in rat liver microsomes; assay type: in vitro ADME; settings: for Predicted clearance [l/h/kg] Rat: well-stirred model
Experimental: (§1) Determination of Metabolic Stability in Human and Rat Liver Microsomes
(§2) The incubations were conducted with 2.4 ml of HLM solution (protein content 0.5 mg/ml), 30 μl of the test compound (final concentration 1 μM) and 0.6 ml of the cofactor mixture (═NADPH-generating system composed of 3 IU glucose-6-phosphate dehydrogenase, 14.6 mg glucose-6-phosphate, 1.2 mg NADP) at 37° C. in 100 mM phosphate buffer at pH 7.4. Samples were taken at 6 time points (2-60 min) and precipitated with an equal volume of methanol, and the recovery of the test substances used in the supernatant was determined by LC-MS/MS analysis. The half-life of substance degradation determined therefrom was used to calculate what is called the intrinsic clearance of the substance in the liver microsome preparation. […] In addition, under the assumptions that (i) absorption of the test substance is 100%, and (ii) the first pass is completely reflected by liver microsome metabolism, a maximum oral bioavailability (Fmax) was calculated.

[2] = target: T1, human progesterone receptor B (Homo sapiens, UniProt P06401); experiment: Progesterone receptor-antagonistic action in stably transfected SK-N-MC cells with MMTV-LUC reporter (PR-B); assay type: cell-based; settings: antagonistic potency against 0.1 nmol/l promegestone, 24 hours, luciferase
T1 construct: expressed in transfected cells; host or cells: SK-N-MC human neuroblastoma cells, stably transfected with pRChPR-B-neo and pMMTV-LUC
T1 sequence (P06401 1-933): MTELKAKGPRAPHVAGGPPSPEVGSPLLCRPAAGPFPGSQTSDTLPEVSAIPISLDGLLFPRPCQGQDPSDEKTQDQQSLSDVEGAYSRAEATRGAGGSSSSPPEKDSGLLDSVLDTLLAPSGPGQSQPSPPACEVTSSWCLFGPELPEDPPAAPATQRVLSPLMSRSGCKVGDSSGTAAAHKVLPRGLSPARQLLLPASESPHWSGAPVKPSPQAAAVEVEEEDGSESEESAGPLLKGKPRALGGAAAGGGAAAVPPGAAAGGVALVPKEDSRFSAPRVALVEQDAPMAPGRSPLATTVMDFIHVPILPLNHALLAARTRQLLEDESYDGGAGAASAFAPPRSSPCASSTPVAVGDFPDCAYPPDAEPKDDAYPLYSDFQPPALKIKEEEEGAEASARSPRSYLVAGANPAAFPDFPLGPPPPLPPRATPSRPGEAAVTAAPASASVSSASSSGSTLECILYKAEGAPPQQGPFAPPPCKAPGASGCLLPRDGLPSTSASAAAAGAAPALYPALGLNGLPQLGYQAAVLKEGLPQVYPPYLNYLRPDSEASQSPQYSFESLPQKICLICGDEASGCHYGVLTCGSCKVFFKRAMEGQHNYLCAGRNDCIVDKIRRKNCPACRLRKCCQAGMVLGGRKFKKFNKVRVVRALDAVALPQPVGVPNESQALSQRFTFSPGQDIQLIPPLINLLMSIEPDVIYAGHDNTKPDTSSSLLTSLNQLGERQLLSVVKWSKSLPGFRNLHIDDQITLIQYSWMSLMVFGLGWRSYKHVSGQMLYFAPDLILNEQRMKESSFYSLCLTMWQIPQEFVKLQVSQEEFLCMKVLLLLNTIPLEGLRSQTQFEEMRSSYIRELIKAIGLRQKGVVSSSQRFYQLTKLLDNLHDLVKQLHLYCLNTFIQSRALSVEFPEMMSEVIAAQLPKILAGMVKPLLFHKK
In short: (§3)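 SK-N-MC neuroblastoma cells stably expressing human PR-A or PR-B plus MMTV-LUC reporter, treated 24 h with test compound (0.01 nmol/l–[…]). Antagonist mode used co-treatment with 0.1 nmol/l promegestone; luciferase in lysates read as RLU, expressed as % efficacy and IC50/EC50.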

[3] = Solubility in aqueous medium at pH 7.4; assay type: physicochemical; settings: aqueous medium, pH 7.4, aqueous buffer
Text: In addition, some compounds have an unusually good solubility, for this active ingredient class, in aqueous medium under physiological conditions (Table 2).

[4] = target: T2, human progesterone receptor A (Homo sapiens, UniProt P06401); experiment: Progesterone receptor-antagonistic action in stably transfected SK-N-MC cells with MMTV-LUC reporter (PR-A); assay type: cell-based; settings: antagonistic potency against 0.1 nmol/l promegestone, 24 hours, luciferase
T2 construct: expressed in transfected cells; host or cells: SK-N-MC human neuroblastoma cells, stably transfected with pRChPR-A-neo and pMMTV-LUC
T2 sequence (P06401 1-769 isoform P06401-2): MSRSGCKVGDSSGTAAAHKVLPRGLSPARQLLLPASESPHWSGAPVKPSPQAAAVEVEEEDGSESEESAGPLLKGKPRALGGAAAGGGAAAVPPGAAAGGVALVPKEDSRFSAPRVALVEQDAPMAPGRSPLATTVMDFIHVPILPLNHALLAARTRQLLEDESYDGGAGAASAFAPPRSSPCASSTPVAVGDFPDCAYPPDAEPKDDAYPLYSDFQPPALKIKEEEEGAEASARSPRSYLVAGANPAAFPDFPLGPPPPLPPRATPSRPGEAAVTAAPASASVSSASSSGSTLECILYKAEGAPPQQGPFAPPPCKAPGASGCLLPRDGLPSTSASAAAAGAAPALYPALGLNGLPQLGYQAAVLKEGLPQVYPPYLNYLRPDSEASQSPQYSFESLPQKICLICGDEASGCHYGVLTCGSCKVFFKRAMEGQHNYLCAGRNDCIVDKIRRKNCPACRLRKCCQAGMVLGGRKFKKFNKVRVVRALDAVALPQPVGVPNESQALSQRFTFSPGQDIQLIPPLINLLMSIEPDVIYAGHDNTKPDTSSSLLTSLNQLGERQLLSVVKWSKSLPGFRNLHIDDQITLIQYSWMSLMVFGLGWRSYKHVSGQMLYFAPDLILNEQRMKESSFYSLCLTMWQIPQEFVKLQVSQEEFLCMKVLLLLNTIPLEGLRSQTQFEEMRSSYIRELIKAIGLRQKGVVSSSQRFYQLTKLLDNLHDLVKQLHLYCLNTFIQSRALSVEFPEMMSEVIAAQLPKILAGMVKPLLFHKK
In short: as §3

[5] = Metabolic stability in human liver microsomes; assay type: in vitro ADME; settings: for Predicted clearance [l/h/kg] Human: 1 μM, well-stirred model
Experimental: as §1
Isolated human liver microsomes (HLM) were used to assess the metabolic stability of compounds of general formula I.
as §2

| SMILES | Predicted Fmax [%] (maximum oral bioavailability) Rat [1] | Predicted clearance [l/h/kg] Rat [1] [L/h/kg] | pIC50 [2] | solubility [3] [µg/mL] | pIC50 [4] | Predicted Fmax [%] (maximum oral bioavailability) Human [5] | Predicted clearance [l/h/kg] Human [5] [L/h/kg] |
| --- | --- | --- | --- | --- | --- | --- | --- |
| C[C@]12C[C@H](c3cccc(/C=C/c4ccccn4)c3)C3=C4CCC(=O)C=C4CC[C@H]3[C@@H]1CC[C@@]2(O)C(F)(F)C(F)(F)F [Example 21, (8S,11R,13S,14S,17S)-17-hydroxy-13-methyl-17-pentafluoroethyl-11-[3-((E)-2-pyridin-2-ylvinyl)phenyl]-1,2,6,7,8,11,12,13,14,15,16,17-dodecahydrocyclopenta[a]phenanthren-3-one] | 88 | 0.5 | 9.00 | 7 (≈ 12.3 µM) | 9.05 | 48 | 0.7 |
| Cc1nc2cc(/C=C/c3ccc([C@H]4C[C@@]5(C)[C@@H](CC[C@@]5(O)C(F)(F)C(F)(F)F)[C@@H]5CCC6=CC(=O)CCC6=C54)cc3)ccc2s1 [Example 10, (8S,11R,13S,14S,17S)-17-hydroxy-13-methyl-11-{4-[(E)-2-(2-methylbenzothiazol-5-yl)vinyl]phenyl}-17-pentafluoroethyl-1,2,6,7,8,11,12,13,14,15,16,17-dodecahydrocyclopenta[a]phenanthren-3-one] | 76 | 1.0 | 9.07 | 8 (≈ 12.5 µM) | 9.70 | 73 | 0.36 |
| CC(=O)/C=C/c1ccc([C@H]2C[C@@]3(C)[C@@H](CC[C@@]3(O)C(F)(F)C(F)(F)F)[C@@H]3CCC4=CC(=O)CCC4=C32)cc1 [Example 16, (8S,11R,13S,14S,17S)-17-hydroxy-13-methyl-11-[4-((E)-3-oxobut-1-enyl)phenyl]-17-pentafluoroethyl-1,2,6,7,8,11,12,13,14,15,16,17-dodecahydrocyclopenta[a]phenanthren-3-one] | 52 | 2.0 | 9.52 | 10 (≈ 18.7 µM) | 10.00 | 23 | 1.02 |

Molecules with a higher pIC50 [2], results first:

| Predicted Fmax [%] (maximum oral bioavailability) Rat [1] | Predicted clearance [l/h/kg] Rat [1] [L/h/kg] | pIC50 [2] | solubility [3] [µg/mL] | pIC50 [4] | Predicted Fmax [%] (maximum oral bioavailability) Human [5] | Predicted clearance [l/h/kg] Human [5] [L/h/kg] | SMILES |
| --- | --- | --- | --- | --- | --- | --- | --- |
| 76 | 1.0 | 10.05 | 8 (≈ 13.6 µM) | 10.26 | 68 | 0.43 | Cc1nc(/C=C/c2ccc([C@H]3C[C@@]4(C)[C@@H](CC[C@@]4(O)C(F)(F)C(F)(F)F)[C@@H]4CCC5=CC(=O)CCC5=C43)cc2)cs1 [Example 9, (8S,11R,13S,14S,17S)-17-hydroxy-13-methyl-11-{4-[(E)-2-(2-methylthiazol-4-yl)vinyl]phenyl}-17-pentafluoroethyl-1,2,6,7,8,11,12,13,14,15,16,17-dodecahydrocyclopenta[a]phenanthren-3-one] |
| 79 | 0.9 | 10.00 | 10 (≈ 17.5 µM) | 9.70 | 26 | 0.98 | C[C@]12C[C@H](c3ccc(/C=C/CC(C#N)C#N)cc3)C3=C4CCC(=O)C=C4CCC3C1CC[C@@]2(O)C(F)(F)C(F)(F)F (stereo partly drawn) [Example 27, 2-{(E)-3-[4-((8S,11R,13S,14S,17S)-17-hydroxy-13-methyl-3-oxo-17-pentafluoroethyl-2,3,6,7,8,11,12,13,14,15,16,17-dodecahydro-1H-cyclopenta[a]phenanthren-11-yl)phenyl]allyl}malonitrile] |
